# Data taken from paper PMC11238352, “Combination of dual JAK/HDAC inhibitor with regorafenib synergistically reduces tumor growth, metastasis, and regorafenib-induced toxicity in colorectal cancer” (Journal of Experimental & Clinical Cancer Research : CR, 2024).
# How the values were obtained:
# [1] = target: T1, FLT4 (Homo sapiens, UniProt P35916); test: PamStation PTK kinomic profiling; type: cell-based; settings: SW480, 45 min, change from DMSO control
# T1 construct: cell lysates were prepared; endogenous in cells; host or cells: SW480 and RKO
# Description: (§1) SW480 and RKO cells were treated with vehicle (DMSO), JAK/HDACi, regorafenib, and their combination for 45 min, and cell lysates were prepared. Tyrosine kinase (PTK) activity (kinomic) profiling was performed using the PamStation®12 platform (PamGene, BV, The Netherlands). As per standard kinomic protocol as described previously. Whole-chip comparative analysis (BioNavigator Upkin PTK v8.0) was performed between groups generating Mean Kinase Statistics (direction of change).
# [2] = target: T2, PDGFR[beta] (Homo sapiens, UniProt P09619); test: PamStation PTK kinomic profiling; type: cell-based; settings: change from DMSO control
# T2 construct: cell lysates were prepared; endogenous in cells; host or cells: SW480 and RKO
# Description: as §1
# [3] = target: T3, IGF1R (Homo sapiens, UniProt P08069); test: PamStation PTK kinomic profiling; type: cell-based; settings: change from DMSO control
# T3 construct: cell lysates were prepared; endogenous in cells; host or cells: SW480 and RKO
# Description: as §1
# [4] = target: T4, EphA2 (Homo sapiens, UniProt P29317); test: PamStation PTK kinomic profiling; type: cell-based; settings: change from DMSO control
# T4 construct: cell lysates were prepared; endogenous in cells; host or cells: SW480 and RKO
# Description: as §1
# [5] = target: T5, EGFR (Homo sapiens, UniProt P00533); test: PamStation PTK kinomic profiling; type: cell-based; settings: change from DMSO control
# T5 construct: cell lysates were prepared; endogenous in cells; host or cells: SW480 and RKO
# Description: as §1
# [6] = target: T6, Axl (Homo sapiens, UniProt P30530); test: PamStation PTK kinomic profiling; type: cell-based; settings: change from DMSO control
# T6 construct: cell lysates were prepared; endogenous in cells; host or cells: SW480 and RKO
# Description: as §1
# [7] = target: T7, FGFR4 (Homo sapiens, UniProt P22455); test: PamStation PTK kinomic profiling; type: cell-based; settings: change from DMSO control
# T7 construct: cell lysates were prepared; endogenous in cells; host or cells: SW480 and RKO
# Description: as §1
# [8] = target: T8, EphA4 (Homo sapiens, UniProt P54764); test: PamStation PTK kinomic profiling; type: cell-based; settings: change from DMSO control
# T8 construct: cell lysates were prepared; endogenous in cells; host or cells: SW480 and RKO
# Description: as §1
# [9] = target: T9, Abl (Homo sapiens, UniProt P00519); test: PamStation PTK kinomic profiling; type: cell-based; settings: change from DMSO control
# T9 construct: cell lysates were prepared; endogenous in cells; host or cells: SW480 and RKO
# Description: as §1
# [10] = target: T10, FAK1 (Homo sapiens, UniProt Q05397); test: PamStation PTK kinomic profiling; type: cell-based; settings: change from DMSO control
# T10 construct: cell lysates were prepared; endogenous in cells; host or cells: SW480 and RKO
# Description: as §1
# [11] = target: T11, FLT1 (Homo sapiens, UniProt P17948); test: PamStation PTK kinomic profiling; type: cell-based; settings: change from DMSO control
# T11 construct: endogenous in cells; host or cells: SW480 and RKO
# Description: as §1
# [12] = mouse, in vivo
# Description: Upon completion of the experiment for 30 days in HT29 metastasis model, before mice were sacrificed, blood was collected and serum was isolated to evaluate liver and kidney functions to assess toxicity with JAK/HDACi and regorafenib alone, and their combination treatment, using a comprehensive Panel EWrap (Cat# 6330-COMP) by a DRY CHEM 4000 Analyzer.
# [13] = Pharmacokinetics in plasma; type: in vivo; settings: given in combination with JAK/HDACi, C57BL/6 mice plasma, 1, 7, 21, 48 h, i.p.
# Description: Blood samples were collected from C57BL/6 mice treated with regorafenib and JAK-HDACi at 1, 7, 21, or 48 h after treatment, and plasma samples were assayed. The quantifications of regorafenib and JAK-HDACi in plasma were conducted using a Shimadzu LC-20AD LC (Shimadzu, OR) and an API5000 MS (Sciex, MA). For sample preparation, a one-step protein precipitation with acetonitrile was used. Plasma (10 µL) was added into 250 µL of acetonitrile. Chromatographic separation was performed using an ACE Excel 3 C18 column. The mobile phase was (A) 0.1% formic acid in water and (B) 0.1% formic acid in acetonitrile utilizing a gradient from 20% to 75%. The injection volume was 10 µL. The run time was 5 min, and the retention time was 2.4 min. Standard curves for regorafenib and JAK-HDACi in plasma were prepared in the ranges of 5–15,000 ng/ml.
# [14] = system: luciferase-tagged HT29 cells; test: HT29 luciferase experimental metastasis model; type: in vivo; settings: NSG mice
# Description: To assess the effect of JAK/HDACi, regorafenib and their combination drug treatments on metastasis, an experiment was performed with 6-week-old NOD/SCID/IL2γ receptor-null (NSG) mice (male and female) as described. All procedures and experimental protocols were approved and conducted in compliance (IACUC-21501). For metastasis experiments, as described previously, tail vein injections with HT29 cells (0.5 × 10^6) carrying a luciferase expression construct were conducted. Mice were imaged at 0, 10, and 30 days post injection, and treated with vehicle or drugs (with JAK/HDACi, regorafenib and their combination). Drug treatments were performed as described in PDX experiment. Bioluminescence imaging was accomplished using an IVIS Lumina III instrument (Perkin Elmer, Waltham, MA), and mice were injected with luciferin 10 min prior to imaging. After 30 days, mouse lungs and kidneys were dissected, and ex vivo analyses were performed.
# [15] = system: SW480 cells; test: Annexin V-FITC/PI apoptosis flow cytometry; type: cell-based; settings: SW480, 72 h, average of three experiments
# Description: (§2) To evaluate the effect of drugs on apoptosis, cells were stained by use of TACS Annexin V-FITC apoptosis detection kit obtained from R&D Systems (Minneapolis, MN), following the manufacturer’s protocol. CRC cells (HCT116, RKO, HT29, and SW480) were seeded at 1 × 10^5/dish in triplicates in four groups: vehicle, JAK/HDACi, regorafenib, and the combination for 72 h. The cells were analyzed with a BD LSR FortessaTM Flow Cytometer (BD Biosciences, Mountain View, CA).
# [16] = system: RKO cells; test: Annexin V-FITC/PI apoptosis flow cytometry; type: cell-based; settings: 72 h, average of three experiments
# Description: as §2
# [17] = system: HCT116 cells; test: Annexin V-FITC/PI apoptosis flow cytometry; type: cell-based; settings: HCT116, 72 h, average of three experiments
# Description: as §2
# [18] = system: HT29 cells; test: Annexin V-FITC/PI apoptosis flow cytometry; type: cell-based; settings: HT29, 72 h, average of three experiments
# Description: as §2
# [19] = system: SW480 cells; test: Cell cycle analysis by flow cytometry; type: cell-based; settings: SW480, 24 h, 500 nM
# Description: To evaluate the effect of drugs on cell cycle arrest, SW480 and RKO cells were seeded, 1 × 10^6/dish in triplicates in four groups: vehicle, JAK/HDACi, regorafenib, and their combination (for 24 h, following procedure described in our previous study. Cell cycle analysis was performed using BD LSR FortessaTM Flow Cytometer (BD Biosciences, Mountain View, CA).
# T7 sequence (P22455 22-802): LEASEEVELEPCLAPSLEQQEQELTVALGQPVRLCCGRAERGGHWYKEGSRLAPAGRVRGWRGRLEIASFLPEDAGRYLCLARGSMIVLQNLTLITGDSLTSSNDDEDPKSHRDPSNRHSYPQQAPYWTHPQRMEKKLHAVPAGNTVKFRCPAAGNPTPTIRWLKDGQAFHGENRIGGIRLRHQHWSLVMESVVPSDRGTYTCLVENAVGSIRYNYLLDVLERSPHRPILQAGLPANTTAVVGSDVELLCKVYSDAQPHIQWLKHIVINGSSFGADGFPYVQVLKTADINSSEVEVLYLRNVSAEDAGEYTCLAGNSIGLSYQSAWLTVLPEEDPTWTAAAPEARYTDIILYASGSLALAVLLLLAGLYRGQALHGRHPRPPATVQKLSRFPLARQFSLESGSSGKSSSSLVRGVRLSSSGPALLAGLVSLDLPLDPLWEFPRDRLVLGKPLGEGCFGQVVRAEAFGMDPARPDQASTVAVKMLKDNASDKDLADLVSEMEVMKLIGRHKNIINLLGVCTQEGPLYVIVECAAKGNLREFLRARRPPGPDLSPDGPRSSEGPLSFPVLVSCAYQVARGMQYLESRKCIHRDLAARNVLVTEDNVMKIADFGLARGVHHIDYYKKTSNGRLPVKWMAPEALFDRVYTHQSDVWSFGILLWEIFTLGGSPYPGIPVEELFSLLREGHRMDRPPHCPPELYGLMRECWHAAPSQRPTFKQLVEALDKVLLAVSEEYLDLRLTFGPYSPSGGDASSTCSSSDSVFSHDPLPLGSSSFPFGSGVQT
# T4 sequence (P29317 24-976): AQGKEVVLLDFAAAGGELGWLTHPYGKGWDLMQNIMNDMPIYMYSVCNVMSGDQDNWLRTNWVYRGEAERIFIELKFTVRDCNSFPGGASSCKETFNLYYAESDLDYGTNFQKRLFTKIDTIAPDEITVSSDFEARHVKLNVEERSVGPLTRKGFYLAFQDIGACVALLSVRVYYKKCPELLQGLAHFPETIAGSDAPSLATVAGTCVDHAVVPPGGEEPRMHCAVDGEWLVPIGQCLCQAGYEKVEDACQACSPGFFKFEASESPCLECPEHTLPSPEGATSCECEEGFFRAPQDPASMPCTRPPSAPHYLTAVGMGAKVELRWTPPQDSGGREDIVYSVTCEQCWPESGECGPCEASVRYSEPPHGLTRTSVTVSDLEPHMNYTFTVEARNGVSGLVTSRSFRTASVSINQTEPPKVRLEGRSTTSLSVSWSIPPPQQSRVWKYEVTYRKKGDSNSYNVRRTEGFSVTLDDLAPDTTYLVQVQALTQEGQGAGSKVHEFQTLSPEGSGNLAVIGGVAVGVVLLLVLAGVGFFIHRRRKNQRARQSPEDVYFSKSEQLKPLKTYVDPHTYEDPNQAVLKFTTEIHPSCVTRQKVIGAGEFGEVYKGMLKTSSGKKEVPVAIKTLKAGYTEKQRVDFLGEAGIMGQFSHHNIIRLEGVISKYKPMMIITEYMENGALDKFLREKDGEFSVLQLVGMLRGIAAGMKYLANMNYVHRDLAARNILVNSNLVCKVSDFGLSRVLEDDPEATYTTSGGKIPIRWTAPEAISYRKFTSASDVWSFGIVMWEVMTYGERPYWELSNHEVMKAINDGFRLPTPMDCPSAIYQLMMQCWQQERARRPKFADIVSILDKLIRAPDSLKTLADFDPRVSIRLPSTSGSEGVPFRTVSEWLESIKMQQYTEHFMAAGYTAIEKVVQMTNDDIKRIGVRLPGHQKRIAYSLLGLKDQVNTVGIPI
# T6 sequence (P30530 26-894): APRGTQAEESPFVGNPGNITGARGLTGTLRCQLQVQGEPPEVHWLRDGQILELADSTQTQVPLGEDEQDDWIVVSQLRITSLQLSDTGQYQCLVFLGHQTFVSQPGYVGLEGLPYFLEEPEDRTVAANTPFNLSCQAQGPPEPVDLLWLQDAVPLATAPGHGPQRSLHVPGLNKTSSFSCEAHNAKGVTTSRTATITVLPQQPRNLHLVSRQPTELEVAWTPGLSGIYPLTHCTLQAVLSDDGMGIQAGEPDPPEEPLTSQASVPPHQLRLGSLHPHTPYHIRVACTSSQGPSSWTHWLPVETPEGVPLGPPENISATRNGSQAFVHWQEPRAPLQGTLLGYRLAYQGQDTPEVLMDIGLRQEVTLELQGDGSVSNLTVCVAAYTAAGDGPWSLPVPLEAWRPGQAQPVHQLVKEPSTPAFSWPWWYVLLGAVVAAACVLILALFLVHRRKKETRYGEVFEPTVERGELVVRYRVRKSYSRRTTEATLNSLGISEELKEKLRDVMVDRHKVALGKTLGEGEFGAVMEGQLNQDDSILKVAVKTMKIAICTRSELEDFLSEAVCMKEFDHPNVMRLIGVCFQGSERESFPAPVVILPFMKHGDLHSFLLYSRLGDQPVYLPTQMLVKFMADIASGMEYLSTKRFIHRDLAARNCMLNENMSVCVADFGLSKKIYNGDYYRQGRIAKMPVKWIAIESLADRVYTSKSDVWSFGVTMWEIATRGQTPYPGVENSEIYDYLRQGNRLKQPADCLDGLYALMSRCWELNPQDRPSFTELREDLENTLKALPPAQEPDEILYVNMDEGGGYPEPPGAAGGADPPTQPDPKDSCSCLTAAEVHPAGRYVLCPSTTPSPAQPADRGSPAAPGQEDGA
# T3 sequence (P08069 31-1367): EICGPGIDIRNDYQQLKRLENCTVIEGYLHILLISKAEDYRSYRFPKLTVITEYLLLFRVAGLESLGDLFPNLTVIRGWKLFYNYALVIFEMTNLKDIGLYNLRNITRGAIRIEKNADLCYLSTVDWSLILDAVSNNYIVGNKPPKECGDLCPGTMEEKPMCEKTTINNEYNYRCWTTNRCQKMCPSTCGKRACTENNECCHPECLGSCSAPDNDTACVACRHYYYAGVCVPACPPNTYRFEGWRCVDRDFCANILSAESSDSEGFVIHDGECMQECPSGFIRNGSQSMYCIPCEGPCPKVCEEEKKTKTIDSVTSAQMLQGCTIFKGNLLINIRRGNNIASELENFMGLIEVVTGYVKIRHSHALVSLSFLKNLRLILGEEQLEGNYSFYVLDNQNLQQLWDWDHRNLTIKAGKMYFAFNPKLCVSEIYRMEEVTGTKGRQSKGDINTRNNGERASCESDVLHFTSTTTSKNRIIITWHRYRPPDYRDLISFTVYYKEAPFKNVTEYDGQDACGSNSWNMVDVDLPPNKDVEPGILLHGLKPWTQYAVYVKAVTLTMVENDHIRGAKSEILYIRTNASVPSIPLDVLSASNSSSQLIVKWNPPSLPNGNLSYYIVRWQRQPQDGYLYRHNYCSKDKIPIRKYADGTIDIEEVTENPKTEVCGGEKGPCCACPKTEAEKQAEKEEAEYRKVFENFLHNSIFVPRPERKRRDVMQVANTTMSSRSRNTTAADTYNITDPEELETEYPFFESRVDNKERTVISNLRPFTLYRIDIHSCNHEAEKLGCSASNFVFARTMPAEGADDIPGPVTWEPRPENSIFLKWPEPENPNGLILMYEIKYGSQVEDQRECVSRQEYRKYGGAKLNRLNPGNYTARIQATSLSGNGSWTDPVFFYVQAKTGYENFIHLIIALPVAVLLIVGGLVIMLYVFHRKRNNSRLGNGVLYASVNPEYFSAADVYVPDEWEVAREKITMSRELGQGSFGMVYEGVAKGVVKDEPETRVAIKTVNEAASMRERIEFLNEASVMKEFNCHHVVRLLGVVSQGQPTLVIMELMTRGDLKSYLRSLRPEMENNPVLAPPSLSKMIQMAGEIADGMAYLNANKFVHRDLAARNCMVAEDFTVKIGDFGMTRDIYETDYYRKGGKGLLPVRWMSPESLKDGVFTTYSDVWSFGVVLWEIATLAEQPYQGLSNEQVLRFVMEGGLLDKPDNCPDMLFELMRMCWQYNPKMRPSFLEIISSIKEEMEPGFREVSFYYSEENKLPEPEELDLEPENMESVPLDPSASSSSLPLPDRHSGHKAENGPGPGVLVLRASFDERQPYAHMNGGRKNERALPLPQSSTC
# T5 sequence (P00533 25-1210): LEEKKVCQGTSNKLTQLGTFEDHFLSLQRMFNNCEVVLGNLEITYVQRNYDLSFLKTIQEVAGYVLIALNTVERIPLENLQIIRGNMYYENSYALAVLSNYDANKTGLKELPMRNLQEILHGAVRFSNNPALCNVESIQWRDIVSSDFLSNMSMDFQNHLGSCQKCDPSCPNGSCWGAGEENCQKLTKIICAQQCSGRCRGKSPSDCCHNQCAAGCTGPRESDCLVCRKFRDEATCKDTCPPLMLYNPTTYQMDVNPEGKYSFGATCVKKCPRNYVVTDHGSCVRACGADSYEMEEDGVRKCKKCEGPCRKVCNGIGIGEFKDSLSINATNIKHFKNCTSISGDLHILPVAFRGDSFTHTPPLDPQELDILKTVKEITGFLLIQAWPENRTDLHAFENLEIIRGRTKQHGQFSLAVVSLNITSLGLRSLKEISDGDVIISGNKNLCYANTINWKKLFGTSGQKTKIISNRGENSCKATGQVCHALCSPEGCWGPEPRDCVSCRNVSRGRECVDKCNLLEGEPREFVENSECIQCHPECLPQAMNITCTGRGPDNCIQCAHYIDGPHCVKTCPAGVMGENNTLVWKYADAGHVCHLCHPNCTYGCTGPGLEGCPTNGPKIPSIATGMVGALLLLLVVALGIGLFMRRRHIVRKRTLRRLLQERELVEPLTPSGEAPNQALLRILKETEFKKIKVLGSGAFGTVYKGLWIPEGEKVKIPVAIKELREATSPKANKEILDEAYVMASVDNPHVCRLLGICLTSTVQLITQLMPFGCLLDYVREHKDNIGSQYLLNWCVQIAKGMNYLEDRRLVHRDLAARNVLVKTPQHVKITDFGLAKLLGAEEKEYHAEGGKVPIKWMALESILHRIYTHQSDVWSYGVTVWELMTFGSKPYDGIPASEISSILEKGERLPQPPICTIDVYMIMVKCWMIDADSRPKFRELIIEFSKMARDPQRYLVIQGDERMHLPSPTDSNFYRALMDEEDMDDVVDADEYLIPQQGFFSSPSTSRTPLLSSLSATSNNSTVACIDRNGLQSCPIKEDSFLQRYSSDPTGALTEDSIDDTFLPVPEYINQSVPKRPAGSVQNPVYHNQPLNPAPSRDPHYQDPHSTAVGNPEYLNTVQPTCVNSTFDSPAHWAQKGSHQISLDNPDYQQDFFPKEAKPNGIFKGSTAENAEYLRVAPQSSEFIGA
smiles,measurement,setting,value
CNC(=O)c1cc(Oc2ccc(NC(=O)Nc3ccc(Cl)c(C(F)(F)F)c3)c(F)c2)ccn1 [regorafenib],"Mean Kinase Statistic, FLT4",[1],-0.234
same,"Mean Kinase Statistic, PDGFR[beta]","[2]; RKO, 45 min",0.140
same,"Mean Kinase Statistic, PDGFR[beta]","[2]; SW480, 45 min",-0.203
same,"Mean Kinase Statistic, IGF1R","[3]; RKO, 45 min",-0.129
same,"Mean Kinase Statistic, IGF1R","[3]; SW480, 45 min",-0.222
same,"Mean Kinase Statistic, EphA2","[4]; RKO, 45 min",0.225
same,"Mean Kinase Statistic, EphA2","[4]; SW480, 45 min",-0.097
same,"Mean Kinase Statistic, EGFR","[5]; RKO, 45 min",0.026
same,"Mean Kinase Statistic, EGFR","[5]; SW480, 45 min",-0.125
same,"Mean Kinase Statistic, Axl","[6]; RKO, 45 min",-0.027
same,"Mean Kinase Statistic, Axl","[6]; SW480, 45 min",-0.146
same,"Mean Kinase Statistic, FGFR4","[7]; RKO, 45 min",0.215
same,"Mean Kinase Statistic, FGFR4","[7]; SW480, 45 min",-0.166
same,"Mean Kinase Statistic, EphA4","[8]; RKO, 45 min",-0.122
same,"Mean Kinase Statistic, EphA4","[8]; SW480, 45 min",-0.155
same,"Mean Kinase Statistic, Abl","[9]; RKO, 45 min",-0.036
same,"Mean Kinase Statistic, Abl","[9]; SW480, 45 min",-0.154
same,"Mean Kinase Statistic, FAK1","[10]; RKO, 45 min",0.052
same,"Mean Kinase Statistic, FAK1","[10]; SW480, 45 min",-0.131
same,"Mean Kinase Statistic, FLT1","[11]; RKO, 45 min",0.207
same,"Mean Kinase Statistic, FLT1","[11]; SW480, 45 min",-0.166
same,ALT,[12],16 U/L
same,Albumin/Globulin,[12],1.0
same,Creatinine,[12],0.4 mg/dL
same,Globulin,[12],2.6 g/dL
same,Total Billirubin,[12],0.5 mg/dL
same,toxicity by serum analysis (liver and kidney functions),[12],no evident toxicity
same,bioavailability of regorafenib,[13],increased
same,bioluminescence intensity on day 30th,[14],reduced intensities
same,percentage of apoptotic cells (sum of early and late apoptotic cells),[15],11.17%
same,percentage of apoptotic cells (sum of early and late apoptotic cells),[16],1.18%
same,percentage of apoptotic cells (sum of early and late apoptotic cells),[17],13.62%
same,percentage of apoptotic cells (sum of early and late apoptotic cells),[18],5.16%
same,cells arrested at the G0-G1 phase,[19],39.1%
same,cells in synthesis (S) phase,[19],50%
